Experimental data from ChEMBL document CHEMBL1201862, “PubChem BioAssay data set” (2004).
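Cells were grown in 96-well plates and exposed to each compound for 48 hours at five concentrations; endpoints were interpolated linearly between bracketing concentrations, or set to the highest concentration if not reached. The concentration for 50% growth inhibition is given as GI50.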 Active and inactive are the calls of the source. No stated cut-off is given here; in the data, active = GI50 up to about 1.1 µM and inactive = higher.

Assays:
Experiment in all cases: NCI-60 cell line screen, 48 h
BT-549 = test system: BT-549
MDA-N = test system: MDA-N
T47D = test system: T47D
HOP-18 = test system: HOP-18
SNB-78 = test system: SNB-78
DLD-1 = test system: DLD-1
DMS-273 = test system: DMS-273
XF498 = test system: XF498

| SMILES | GI50 (BT-549) | GI50 (MDA-N) | GI50 (T47D) | GI50 (HOP-18) | GI50 (SNB-78) | GI50 (DLD-1) | GI50 (DMS-273) | GI50 (XF498) |
| --- | --- | --- | --- | --- | --- | --- | --- | --- |
| COc1ccc(NC(=S)N/N=C\c2ccc(NC(C)=O)cc2)cc1 | > 100 µM (inactive) | > 100 µM (inactive) | > 100 µM (inactive) |  |  |  |  |  |
| Fc1cccc(C2SCC3=Nc4ccccc4CN32)c1 (stereo not given) | 92.5 µM (inactive) | 79.1 µM (inactive) | 57.3 µM (inactive) |  |  |  |  |  |
| CN(C)c1ccc(/C=C/c2cc(-c3ccccc3)[n+](C)n2-c2ccccc2)cc1 | 0.0571 µM (active) | 0.114 µM (active) |  |  |  |  |  |  |
| O=C(NCCCNCCCCNCCCNC(=O)c1cc(-c2ccccc2)nc2ccccc12)c1cc(-c2ccccc2)nc2ccccc12 | 3.13 µM (inactive) | 1.77 µM (inactive) | 2.63 µM (inactive) |  |  |  |  |  |
| Cc1cccc2c(N)c3cccc(C(=O)NCCN4CCOCC4)c3nc12 | 1.93 µM (inactive) | 0.6 µM (active) |  |  |  |  |  |  |
| CCOC(=O)c1csc(NC(=O)CN2CCN(c3ccccc3)CC2)n1 |  | > 100 µM (inactive) | 94 µM (inactive) |  |  |  |  |  |
| CCCCP(CCCC)(CCCC)=C(C(=O)OC)C(C(=O)OC)=C1SC(C(=O)OC)=C(C(=O)OC)S1 | 15.7 µM (inactive) |  | 13.5 µM (inactive) |  |  |  |  |  |
| Cc1ccc(OCC2=NN3C(=O)/C(=C\c4ccc([N+](=O)[O-])o4)SC3N2)cc1 (stereo not given) | 12.5 µM (inactive) | 4.3 µM (inactive) | 2.17 µM (inactive) |  |  |  |  |  |
| N#CCCN(CCC#N)c1ccc(/C=C2\SC(=S)NC2=O)cc1 | 31.8 µM (inactive) | > 100 µM (inactive) | > 100 µM (inactive) |  |  |  |  |  |
| COC(=O)/C(C#N)=C1\NC(=O)c2ccccc21 |  |  |  | > 100 µM (inactive) | > 100 µM (inactive) | > 100 µM (inactive) | > 100 µM (inactive) |  |
| c1ccc2c(CCNC3=NCCO3)cccc2c1 |  | > 10 µM (inactive) | > 10 µM (inactive) |  |  |  |  |  |
| CCOC(=O)COc1ccc(OC)c2c1C(=O)CCC2 |  |  |  | > 100 µM (inactive) | > 100 µM (inactive) |  | > 100 µM (inactive) | > 100 µM (inactive) |
| CCN(CC)CCC(=O)NC1c2ccccc2Oc2c(C)cccc21 (stereo not given) |  |  |  |  | > 100 µM (inactive) | > 100 µM (inactive) | > 100 µM (inactive) | > 100 µM (inactive) |
| CC#CC#C/C(=C/C=CC(=O)OC)SC | > 100 µM (inactive) | > 100 µM (inactive) | > 100 µM (inactive) |  |  |  |  |  |
| O=C(O)CCCN1CCCCC1 | > 100 µM (inactive) | > 100 µM (inactive) | > 100 µM (inactive) |  |  |  |  |  |
| Cc1ccc(CC(Cc2ccccc2C)C(=O)O)c(C(=O)O)c1 (stereo not given) | > 100 µM (inactive) | > 100 µM (inactive) |  |  |  |  |  |  |

| SMILES | GI50 (BT-549) | GI50 (MDA-N) | GI50 (T47D) | GI50 (HOP-18) | GI50 (SNB-78) | GI50 (DLD-1) | GI50 (DMS-273) | GI50 (XF498) |
| --- | --- | --- | --- | --- | --- | --- | --- | --- |
| CCOC(=O)CC(NC(=O)c1nc[nH]c1/N=N/N(C)C)C(=O)OCC (stereo not given) |  |  |  |  |  | > 100 µM (inactive) | > 100 µM (inactive) |  |
| O=[N+]([O-])c1sc2ccc(Cl)cc2c1Nc1ccc(Cl)cc1 | > 100 µM (inactive) |  | > 100 µM (inactive) |  |  |  |  |  |
| CC(C)c1ccc2c(c1)[C@@]1(C)CC[C@H](C)C(C)(C)C1CC2 (stereo not given in full) | 20.6 µM (inactive) | 26.1 µM (inactive) | 26.1 µM (inactive) |  |  |  |  |  |
| Cc1ccc(-c2nnc(SCC(=O)O)[nH]2)cc1 |  |  |  | > 100 µM (inactive) | > 100 µM (inactive) | > 100 µM (inactive) | > 100 µM (inactive) | > 100 µM (inactive) |
| O=C(O)CCC(=O)Nc1ccc2c(c1)S(=O)(=O)N(CC(=O)O)C2=O | > 100 µM (inactive) | > 100 µM (inactive) | > 100 µM (inactive) |  |  |  |  |  |
| O=C(Nc1ccccc1)N1CCN(C(=O)Nc2ccccc2)C1=S | 30.4 µM (inactive) | > 100 µM (inactive) | 40.9 µM (inactive) |  |  |  |  |  |
| O=C(O)C(/C=C/c1ccccc1)c1ccccc1 (stereo not given) | > 100 µM (inactive) | > 100 µM (inactive) | > 100 µM (inactive) |  |  |  |  |  |
| CC[C@H](C)N(CCN)C(=O)c1cc2ccccc2c(-c2ccccc2Cl)n1 |  |  |  |  | 14.3 µM (inactive) |  | 13.6 µM (inactive) |  |
| CC(C)(C)c1ccc(-c2nnc(-c3cc(C#N)cc(-c4nnc(-c5ccc(C(C)(C)C)cc5)o4)c3)o2)cc1 | > 100 µM (inactive) | > 100 µM (inactive) | > 100 µM (inactive) |  |  |  |  |  |
| CC(O[Si](c1ccccc1)(c1ccccc1)C(C)(C)C)[C@H](NC(=O)OC(C)(C)C)C(=O)O (stereo not given in full) |  | 38.7 µM (inactive) | 39.8 µM (inactive) |  |  |  |  |  |
| CON(C)C(=O)C(C)N(Cc1ccccc1)Cc1ccccc1 (stereo not given) | 45.6 µM (inactive) | > 100 µM (inactive) |  |  |  |  |  |  |
| Cn1cnc([N+](=O)[O-])c1Sc1nc2ccccc2[nH]1 |  |  |  | 67.6 µM (inactive) | 13.2 µM (inactive) | 5.6 µM (inactive) | 1.91 µM (inactive) | 3.65 µM (inactive) |
| CC(O)c1cc2c(s1)C(=O)c1c(C(C)O)csc1C2=O (stereo not given) | 0.19 µM (active) | 0.0226 µM (active) | 0.167 µM (active) |  |  |  |  |  |
| Nc1ccccc1SCc1csc(-c2ccc(Cl)cc2)n1 | 24.1 µM (inactive) |  | 5.07 µM (inactive) |  |  |  |  |  |
| C/C1=C\[C@@H](O)C(=O)/C=C/C=C\c2csc(n2)[C@@H](C)NC(=O)C[C@@]2(CC1)[S+]([O-])SC(=O)[C@]2(C)O (stereo not given in full) [LEINAMYCIN] | 0.00151 µM (active) | 0.0101 µM (active) | 0.00102 µM (active) | 0.0301 µM (active) | 0.01 µM (active) | 0.0209 µM (active) | 0.0135 µM (active) |  |
| O=C(O)Cc1ccccc1 [PHENYLACETIC ACID] | > 1000 µM (inactive) | > 100 µM (inactive) | > 100 µM (inactive) |  |  |  |  |  |
